Measured values as given in patent publication US20130158075A1, “HETEROCYCLIC COMPOUNDS AS DGAT1 INHIBITORS” (PIRAMAL ENTERPRISES LIMITED, priority 2010, published 2013).

biological target: T1, hDGAT1 (Homo sapiens, UniProt O75907); assay: In-vitro DGAT1 assay with hDGAT1 microsomes from Sf9 cells (14C oleoyl CoA, scintillation counting); format: biochemical; details: at 1 μM
T1 construct: made in house; host or cells: Sf9 insect cells (baculovirus); microsomal fraction
T1 sequence (O75907 1-488): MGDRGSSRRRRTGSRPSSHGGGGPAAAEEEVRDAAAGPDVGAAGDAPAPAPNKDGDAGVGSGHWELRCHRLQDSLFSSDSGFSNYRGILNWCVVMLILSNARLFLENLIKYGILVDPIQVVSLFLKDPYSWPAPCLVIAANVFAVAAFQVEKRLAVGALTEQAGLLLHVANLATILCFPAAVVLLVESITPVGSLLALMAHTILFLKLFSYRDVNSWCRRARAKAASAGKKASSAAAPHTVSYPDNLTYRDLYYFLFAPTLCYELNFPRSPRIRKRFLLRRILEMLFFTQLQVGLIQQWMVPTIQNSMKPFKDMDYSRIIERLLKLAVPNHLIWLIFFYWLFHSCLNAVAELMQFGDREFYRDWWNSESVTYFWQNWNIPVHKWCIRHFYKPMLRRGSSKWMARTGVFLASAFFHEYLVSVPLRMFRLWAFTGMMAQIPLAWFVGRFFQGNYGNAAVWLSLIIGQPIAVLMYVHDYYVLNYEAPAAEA
How it was run: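 Radiolabelled triglyceride formation was measured: heptane extracts were scintillation-counted after a 10-min, 37 °C reaction stopped with alkaline ethanol. Enzyme was human DGAT1 in baculovirus-infected Sf9 microsomal membranes; substrates were 14C oleoyl-CoA plus dioleoylglycerol. Runs were duplicated, and inhibition (%) was related to nM compound concentration.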

| Percentage inhibition of hDGAT1 | Compound |
| --- | --- |
| + (20-50% Inhibition) | CC(=O)NC(=O)CC1CCC(c2ncc(-c3ccc(NC(=O)c4c(F)cccc4F)cc3)s2)CC1 (centres unmarked) [Example 403, N-(4-(2-(4-(2-Acetamido-2-oxoethyl)cyclohexyl)thiazol-5-yl)phenyl)-2,6-difluoro benzamide] |

same assay, conditions: read-out: Percentage inhibition of hDGAT1

| Compound | inhibition at 1 µM |
| --- | --- |
| Cc1noc(CC2CCC(c3ncc(-c4ccc(NC(=O)Nc5ccc(F)cc5F)cc4)s3)CC2)n1 (centres unmarked) [Example 394, 1-(2,4-Difluorophenyl)-3-(4-(2-(4-((3-methyl-1,2,4-oxadiazol-5-yl)methyl)cyclohexyl)thiazol-5-yl)phenyl)urea] | > 50% |
| Cc1noc(CC2CCC(c3ncc(-c4ccc(NC(=O)c5c(F)cccc5F)cc4)s3)CC2)n1 (centres unmarked) [Example 396, 2,6-Difluoro-N-(4-(2-(4-((3-methyl-1,2,4-oxadiazol-5-yl)methyl)cyclohexyl)thiazol-5-yl)phenyl)benzamide] | 20 to 50% |
| CC(=O)NC(=O)CC1CCC(c2ncc(-c3ccc(NC(=O)Nc4ccccc4Cl)cc3)s2)CC1 (centres unmarked) [Example 400, N-Acetyl-2-(4-(5-(4-(3-(2-chlorophenyl)ureido)phenyl)thiazol-2-yl)cyclohexyl)acetamide] | > 50% |
| CC(=O)NC(=O)CC1CCC(c2ncc(-c3ccc(NC(=O)Nc4ccc(F)cc4F)cc3)s2)CC1 (centres unmarked) [Example 401, N-Acetyl-2-(4-(5-(4-(3-(2,4-difluorophenyl)ureido)phenyl)thiazol-2-yl)cyclohexyl)acetamide] | > 50% |
| CC(=O)NC(=O)CC1CCC(c2ncc(-c3ccc(NC(=O)Nc4cc(F)c(F)cc4F)cc3)s2)CC1 (centres unmarked) [Example 402, N-Acetyl-2-(4-(5-(4-(3-(2,4,5-trifluorophenyl)ureido)phenyl)thiazol-2-yl)cyclohexyl)acetamide] | > 50% |
| CC(C)(O)C1CCC(c2ncc(-c3ccc(NC(=O)Nc4cc(F)cc(F)c4)cc3)s2)CC1 (centres unmarked) [Example 405, 1-(3,5-Difluorophenyl)-3-(4-(2-(4-(2-hydroxypropan-2-yl)cyclohexyl)thiazol-5-yl)phenyl)urea] | > 50% |
| CC(C)(O)C1CCC(c2ncc(-c3ccc(NC(=O)Nc4ccc(F)cc4F)cc3)s2)CC1 (centres unmarked) [Example 406, 1-(2,4-Difluorophenyl)-3-(4-(2-(4-(2-hydroxypropan-2-yl)cyclohexyl)thiazol-5-yl)phenyl)urea] | > 50% |
| CC(C)(O)CC1CCC(c2ncc(-c3ccc(NC(=O)Nc4ccc(F)cc4F)cc3)s2)CC1 (centres unmarked) [Example 407, 1-(2,4-Difluorophenyl)-3-(4-(2-(4-(2-hydroxy-2-methylpropyl)cyclohexyl)thiazol-5-yl)phenyl)urea] | > 50% |
| CC(C)(O)CC1CCC(c2ncc(-c3ccc(NC(=O)Nc4cc(F)cc(F)c4)cc3)s2)CC1 (centres unmarked) [Example 408, 1-(3,5-Difluorophenyl)-3-(4-(2-(4-(2-hydroxy-2-methylpropyl)cyclohexyl)thiazol-5-yl)phenyl)urea] | > 50% |

Second part, the molecule after the results:

| inhibition at 1 µM | Compound |
| --- | --- |
| > 50% | Cc1noc(CC2CCC(c3ncc(-c4ccc(NC(=O)Nc5ccccc5F)cc4)s3)CC2)n1 (centres unmarked) [Example 391, 1-(2-Fluorophenyl)-3-(4-(2-(4-((3-methyl-1,2,4-oxadiazol-5-yl)methyl)cyclohexyl)thiazol-5-yl)phenyl)urea] |
| > 50% | Cc1noc(CC2CCC(c3ncc(-c4ccc(NC(=O)Nc5cc(F)cc(F)c5)cc4)s3)CC2)n1 (centres unmarked) [Example 392, 1-(3,5-Difluorophenyl)-3-(4-(2-(4-((3-methyl-1,2,4-oxadiazol-5-yl)methyl)cyclohexyl)thiazol-5-yl)phenyl)urea] |
| > 50% | Cc1noc(CC2CCC(c3ncc(-c4ccc(NC(=O)Nc5cc(F)c(F)cc5F)cc4)s3)CC2)n1 (centres unmarked) [Example 393, 1-(4-(2-(4-((3-Methyl-1,2,4-oxadiazol-5-yl)methyl)cyclohexyl)thiazol-5-yl)phenyl)-3-(2,4,5-trifluorophenyl)urea] |
| > 50% | CC(C)(O)C1CCC(c2ncc(-c3ccc(NC(=O)Nc4ccccc4Cl)cc3)s2)CC1 (centres unmarked) [Example 404, 1-(2-Chlorophenyl)-3-(4-(2-(4-(2-hydroxypropan-2-yl)cyclohexyl)thiazol-5-yl)phenyl)urea] |
